Measurements from patent US9913857B2, “Composition and methods of screening” (OPTIBIOTIX LIMITED, priority 2013, dated 2018).

What was measured:
Total count = assay: Anaerobic cultures, gut bacterial groups by fluorescent in situ hybridisation: total count; assay type: cell-based; set-up: Total count 24: unit not given here; conditions: for Total count 24: 24 hours, anaerobic culture, inoculum 8.84; for Total count 24 hr % change: 24 hr vs inoculum
Procedure: (§1) In these experiments, anaerobic cultures were tested to evaluate the in vitro utilisation of a novel Lactobacillus reuteri galactooligosaccharide by monitoring the populations of gut bacterial groups at 24 hours using fluorescent in situ hybridisation, and short-chain fatty acid […]. Fructooligosaccharides (FOS), melibiose and raffinose were used as reference carbohydrates.

Bifidobacteria = assay: Anaerobic cultures, gut bacterial groups by fluorescent in situ hybridisation: Bifidobacteria; assay type: cell-based; set-up: Bifidobacteria 24: unit not given here; conditions: for Bifidobacteria 24: 24 hours, anaerobic culture, inoculum 6.85; for Bifidobacteria 24 hr % change: 24 hr vs inoculum
Procedure: as §1

Bacteroides = assay: Anaerobic cultures, gut bacterial groups by fluorescent in situ hybridisation: Bacteroides; assay type: cell-based; set-up: Bacteroides 24: unit not given here; conditions: for Bacteroides 24: 24 hours, anaerobic culture, inoculum 7.98; for Bacteroides 24 hr % change: 24 hr vs inoculum
Procedure: as §1

Lactobacilli = assay: Anaerobic cultures, gut bacterial groups by fluorescent in situ hybridisation: Lactobacilli; assay type: cell-based; set-up: Lactobacilli 24: unit not given here; conditions: for Lactobacilli 24: 24 hours, anaerobic culture, inoculum 7.15; for Lactobacilli 24 hr % change: 24 hr vs inoculum
Procedure: as §1

Clostridia = assay: Anaerobic cultures, gut bacterial groups by fluorescent in situ hybridisation: Clostridia; assay type: cell-based; set-up: Clostridia 24: unit not given here; conditions: for Clostridia 24: 24 hours, anaerobic culture, inoculum 7.55; for Clostridia 24 hr % change: 24 hr vs inoculum
Procedure: as §1

E. coli = assay: Anaerobic cultures, gut bacterial groups by fluorescent in situ hybridisation: E. coli; assay type: cell-based; set-up: E. coli 24: unit not given here; conditions: for E. coli 24: 24 hours, anaerobic culture, inoculum 8.14; for E. coli 24 hr % change: 24 hr vs inoculum
Procedure: as §1

Eubacteria = assay: Anaerobic cultures, gut bacterial groups by fluorescent in situ hybridisation: Eubacteria; assay type: cell-based; set-up: Eubacteria 24: unit not given here; conditions: for Eubacteria 24: 24 hours, anaerobic culture, inoculum 8.06; for Eubacteria 24 hr % change: 24 hr vs inoculum
Procedure: as §1

Lactobacilli strains = assay: Bacterial growth curve with lactose as growth medium; assay type: cell-based, Lactobacillus; conditions: around 13 hours, from approximately 6.5, L. plantarum, L. casei, L. salivarius, L. rhanmosus, L. delbrueckii
Procedure: Bacterial growth curve determination was undertaken by sampling cultures at 0 h, 3 h, 5 h, 8 and 24 h intervals using a 100 μL of dilution series of culture in 900 μL PBS. 20 μL of each series was spread onto a jar and with a negative control and growth assessed.
Bacterial count of several of the strains was assessed by using 0.1% lactose as the growth medium.
Bacterial count of several of the strains was assessed by using 5% lactose as the growth medium. FIGS. 2A-2G show the bacterial count over time using 5% lactose as a growth medium for L. plantarum, L. casei, L. salivarius, L. delbrueckii, L. rhanmosus, L. acidophilus and L. helveticus.

Row | Compound | Total count 24 (Total count) | Total count 24 hr % change (Total count) [%] | Bifidobacteria 24 (Bifidobacteria) | Bifidobacteria 24 hr % change (Bifidobacteria) [%] | Bacteroides 24 (Bacteroides) | Bacteroides 24 hr % change (Bacteroides) [%] | Lactobacilli 24 (Lactobacilli) | Lactobacilli 24 hr % change (Lactobacilli) [%] | Clostridia 24 (Clostridia) | Clostridia 24 hr % change (Clostridia) [%] | E. coli 24 (E. coli) | E. coli 24 hr % change (E. coli) [%] | Eubacteria 24 (Eubacteria) | Eubacteria 24 hr % change (Eubacteria) [%] | bacterial count (Lactobacilli strains; 0.1% lactose as growth medium, L. fermentum) | bacterial count (Lactobacilli strains; 5% lactose as growth medium, L. acidophilus, L. helveticus)
1 | OC[C@H]1O[C@H](OCC2O[C@@H](O)[C@H](O)[C@@H](O)[C@@H]2O)[C@H](O)[C@@H](O)[C@H]1O (stereo partly drawn) [Melibiose, melibiose] | 9.14 | 103 | 7.33 | 107 | 7.9 | 99 | 7.43 | 104 | 7.65 | 101 | 7.66 | 94 | 7.84 | 97 |  | 
2 | OC[C@H]1O[C@@H](O[C@H]2[C@H](O)[C@@H](O)C(O)O[C@@H]2CO)[C@H](O)[C@@H](O)[C@H]1O (stereo partly drawn) [lactose] |  |  |  |  |  |  |  |  |  |  |  |  |  |  | over 9.5 log 10 CFU/ml | over 9.5 log 10 CFU/ml
3 | OC[C@H]1O[C@H](OC[C@H]2O[C@H](O[C@]3(CO)O[C@H](CO)[C@@H](O)[C@@H]3O)[C@H](O)[C@@H](O)[C@@H]2O)[C@H](O)[C@@H](O)[C@H]1O [Raffinose, raffinose] | 9.19 | 104 | 7.69 | 112 | 8.08 | 101 | 7.45 | 104 | 7.81 | 103 | 8.03 | 99 | 8.69 | 108 |  | 
